# Results as given in patent US20240293380A1, “PROTEASE INHIBITORS AND METHODS OF USE” (priority 2021, published 2024).
# Target: SARS-CoV-2 3CLpro (Severe acute respiratory syndrome coronavirus 2 (2019-nCoV) (SARS-CoV-2), UniProt P0DTD1)
# Assay type: biochemical
SMILES,IC50 [nM],SARS-CoV-2 IC50 (nM)
"O=C(Cc1nnc2ccccn12)N(Cc1cccc(Cl)c1)c1ccc(-c2cn[nH]c2)cc1 [Compound 1, N-[(3-chlorophenyl)methyl]-N-[4-(1H-pyrazol-4-yl)phenyl]-2-([1,2,4]triazolo[4,3-a]pyridin-3-yl)acetamide]",365,–
"O=C(Cc1cncc2ccccc12)N(Cc1cccc(Cl)c1)c1ccc(-c2cn[nH]c2)cc1 [Compound 2, N-[(3-chlorophenyl)methyl]-2-(4-isoquinolyl)-N-[4-(1H-pyrazol-4-yl)phenyl]acetamide]",30,–
"O=C(Cc1nnc2ccc(F)cn12)N(Cc1cccc(Cl)c1)c1ccc(-c2cn[nH]c2)cc1 [Compound 3, N-[(3-chlorophenyl)methyl]-2-(6-fluoro-[1,2,4]triazolo[4,3-a]pyridin-3-yl)-N-[4-(1H-pyrazol-4-yl)phenyl]acetamide]",3360,–
"O=C(Cc1cnc2ccccn12)N(Cc1cccc(Cl)c1)c1ccc(-c2cn[nH]c2)cc1 [Compound 4, N-[(3-chlorophenyl)methyl]-2-imidazo[1,2-a]pyridin-3-yl-N-[4-(1H-pyrazol-4-yl)phenyl]acetamide]",1150,–
"O=C(Cc1cnccn1)N(Cc1cccc(Cl)c1)c1ccc(-c2cn[nH]c2)cc1 [Compound 5, N-[(3-chlorophenyl)methyl]-2-pyrazin-2-yl-N-[4-(1H-pyrazol-4-yl)phenyl]acetamide]",5220,–
"O=C(Cc1cccnn1)N(Cc1cccc(Cl)c1)c1ccc(-c2cn[nH]c2)cc1 [Compound 6, N-[(3-chlorophenyl)methyl]-N-[4-(1H-pyrazol-4-yl)phenyl]-2-pyridazin-3-yl-acetamide]",5000,–
"O=C(Cc1nnc(-c2ccccc2)o1)N(Cc1cccc(Cl)c1)c1ccc(-c2cn[nH]c2)cc1 [Compound 7, N-[(3-chlorophenyl)methyl]-2-(5-phenyl-1,3,4-oxadiazol-2-yl)-N-[4-(1H-pyrazol-4-yl)phenyl]acetamide]",–,Inactive
"O=C(Cc1nnc(-c2ccccc2)s1)N(Cc1cccc(Cl)c1)c1ccc(-c2cn[nH]c2)cc1 [Compound 8, N-[(3-chlorophenyl)methyl]-2-(5-phenyl-1,3,4-thiadiazol-2-yl)-N-[4-(1H-pyrazol-4-yl)phenyl]acetamide]",–,Inactive
"O=C(Cc1nnc2ccccn12)N(Cc1cc(F)cc(Cl)c1)c1ccc(-c2c[nH]cn2)cc1 [Compound 9, N-[(3-chloro-5-fluoro-phenyl)methyl]-N-[4-(1H-imidazol-4-yl)phenyl]-2-([1,2,4]triazolo[4,3-a]pyridin-3-yl)acetamide]",71,–
"O=C(Cc1nnc2ccc(F)cn12)N(Cc1cc(F)cc(Cl)c1)c1ccc(-c2c[nH]cn2)cc1 [Compound 10, N-[(3-chloro-5-fluoro-phenyl)methyl]-2-(6-fluoro-[1,2,4]triazolo[4,3-a]pyridin-3-yl)-N-[4-(1H-imidazol-4-yl)phenyl]acetamide]",77,–
"O=C(Cc1cnc2ccccn12)N(Cc1cc(F)cc(Cl)c1)c1ccc(-c2c[nH]cn2)cc1 [Compound 11, N-[(3-chloro-5-fluoro-phenyl)methyl]-2-imidazo[1,2-a]pyridin-3-yl-N-[4-(1H-imidazol-4-yl)phenyl]acetamide]",65,–
C[C@H](c1cc(F)cc(Cl)c1)N(C(=O)Cc1nnc2ccccn12)c1ccc(-c2c[nH]cn2)cc1 [Compound 13],587,–
C[C@H](c1cc(F)cc(Cl)c1)N(C(=O)Cc1cncc2ccccc12)c1ccc(-c2c[nH]cn2)cc1 [Compound 14],76,–
O=C(Cc1cncc2ccccc12)N(Cc1cc(Cl)ccc1F)c1ccc(-c2c[nH]cn2)cc1 [Compound 15],308,–
O=C(Cc1cncc2ccccc12)N(Cc1cccc(Cl)c1F)c1ccc(-c2c[nH]cn2)cc1 [Compound 16],370,–
O=C(Cc1cncc2ccccc12)N(Cc1cncc(Cl)c1)c1ccc(-c2c[nH]cn2)cc1 [Compound 17],101,–
COc1ccc(Cl)cc1CN(C(=O)Cc1cncc2ccccc12)c1ccc(-c2c[nH]cn2)cc1 [Compound 18],191,–
COc1cc(Cl)cc(CN(C(=O)Cc2cncc3ccccc23)c2ccc(-c3c[nH]cn3)cc2)c1 [Compound 19],100,–
O=C(Cc1nnc2ccccn12)N(Cc1cc(F)ccc1F)c1ccc(-c2c[nH]cn2)cc1 [Compound 22],786,–
O=C(Cc1cncc2ccccc12)N(Cc1cc(F)ccc1F)c1ccc(-c2c[nH]cn2)cc1 [Compound 23],159,–
O=C(Cc1nnc2ccccn12)N(Cc1cccc(F)c1F)c1ccc(-c2c[nH]cn2)cc1 [Compound 24],1300,–
O=C(Cc1cncc2ccccc12)N(Cc1cccc(F)c1F)c1ccc(-c2c[nH]cn2)cc1 [Compound 25],184,–

SMILES,IC50 [nM],SARS-CoV-2 IC50 (nM)
O=C(Cc1cncc2ccccc12)N(Cc1cccc(F)c1)c1ccc(-c2c[nH]cn2)cc1 [Compound 26],351,–
O=C(Cc1nnc2ccccn12)N(Cc1cc(F)cc(F)c1)c1ccc(-c2c[nH]cn2)cc1 [Compound 27],209,–
O=C(Cc1cncc2ccccc12)N(Cc1cc(F)cc(F)c1)c1ccc(-c2c[nH]cn2)cc1 [Compound 28],53,–
O=C(Cc1cncc2ccccc12)N(Cc1cc(F)cc(Cl)c1)c1ccc(-c2c[nH]cn2)cn1 [Compound 29],40,–
CC(c1cc(F)cc(F)c1)N(C(=O)Cc1cncc2ccccc12)c1ccc(-c2c[nH]cn2)cc1 (stereo not shown) [Compound 30],114,–
O=C(Cc1cccnn1)N(Cc1cc(F)cc(F)c1)c1ccc(-c2c[nH]cn2)cc1 [Compound 31],506,–
O=C1CNCCN1c1ccc(N(Cc2cc(F)cc(F)c2)C(=O)Cc2cncc3ccccc23)cc1 [Compound 35],481,–
O=C1CN(c2ccc(N(Cc3cc(F)cc(F)c3)C(=O)Cc3cncc4ccccc34)cc2)CCN1 [Compound 36],370,–
N#Cc1ccc(N(Cc2cc(F)cc(F)c2)C(=O)Cc2cncc3ccccc23)cc1 [Compound 38],1250,–
O=C(Cc1cncc2ccccc12)N(Cc1cncc(C(F)(F)F)c1)c1ccc(-c2c[nH]cn2)cc1 [Compound 39],82,–
O=C(Cc1cncc2ccccc12)N(Cc1cncc(F)c1)c1ccc(-c2c[nH]cn2)cc1 [Compound 40],53,–
Cc1ccc2nnc(CC(=O)N(Cc3cc(F)cc(F)c3)c3ccc(-c4c[nH]cn4)cc3)n2n1 [Compound 41],604,–
Cc1ccc2nnc(CC(=O)N(Cc3cc(F)cc(Cl)c3)c3ccc(-c4c[nH]cn4)cc3)n2n1 [Compound 42],250,–
O=C(Cc1cccnc1)N(Cc1cc(F)cc(Cl)c1)c1ccc(-c2c[nH]cn2)cc1 [Compound 43],188,–
O=C(Cc1cccnc1)N(Cc1cccc(Cl)c1)c1ccc(-c2c[nH]cn2)cc1 [Compound 44],414,–
CC(C)(C)CN(C(=O)Cc1cncc2ccccc12)c1ccc(-c2c[nH]cn2)cc1 [Compound 45],356,–
CC(C)CN(C(=O)Cc1nnc2ccccn12)c1ccc(-c2c[nH]cn2)cc1 [Compound 46],8100,–
O=C(Cc1nnc2ccccn12)N(Cc1cccc(F)c1)c1ccc(-c2c[nH]cn2)cc1 [Compound 47],621,–
O=C(Cc1cncnc1)N(Cc1cc(F)cc(Cl)c1)c1ccc(-c2c[nH]cn2)cc1 [Compound 48],542,–
O=C(Cc1noc2ccccc12)N(Cc1cc(F)cc(Cl)c1)c1ccc(-c2c[nH]cn2)cc1 [Compound 49],839,–
O=C1NC(CC(=O)N(Cc2cc(F)cc(Cl)c2)c2ccc(-c3c[nH]cn3)cc2)c2ccccc21 (stereo not shown) [Compound 50],30800,–
